Test results taken from ChEMBL document CHEMBL2390953, “Pyridinylpyrimidines selectively inhibit human methionine aminopeptidase-1” (Bioorg Med Chem, 2013).
pIC50: −log10 of the molar value.

Columns and labels:
[1] = species: Homo sapiens; assay: Selectivity ratio of EC50 for human recombinant GST-6XHis-tagged full-length cytosolic METAP2 to EC50 for human recombinant full-length cytosolic METAP1
[2] = molecular target: Methionine aminopeptidase 1 (Homo sapiens, UniProt P53582)
Description: Inhibition of human recombinant full-length cytosolic METAP1 expressed in Escherichia coli BL21(DE3) using Met-Pro-p-nitroanilide as substrate after 20 mins by spectrophotometric analysis in presence of Bacillus coagulans GST-tagged proline iminopeptidase

[3] = molecular target: Methionine aminopeptidase 2 (Homo sapiens, UniProt P50579); assay: biochemical
Chain of Methionine aminopeptidase 2 (P50579 whole entry): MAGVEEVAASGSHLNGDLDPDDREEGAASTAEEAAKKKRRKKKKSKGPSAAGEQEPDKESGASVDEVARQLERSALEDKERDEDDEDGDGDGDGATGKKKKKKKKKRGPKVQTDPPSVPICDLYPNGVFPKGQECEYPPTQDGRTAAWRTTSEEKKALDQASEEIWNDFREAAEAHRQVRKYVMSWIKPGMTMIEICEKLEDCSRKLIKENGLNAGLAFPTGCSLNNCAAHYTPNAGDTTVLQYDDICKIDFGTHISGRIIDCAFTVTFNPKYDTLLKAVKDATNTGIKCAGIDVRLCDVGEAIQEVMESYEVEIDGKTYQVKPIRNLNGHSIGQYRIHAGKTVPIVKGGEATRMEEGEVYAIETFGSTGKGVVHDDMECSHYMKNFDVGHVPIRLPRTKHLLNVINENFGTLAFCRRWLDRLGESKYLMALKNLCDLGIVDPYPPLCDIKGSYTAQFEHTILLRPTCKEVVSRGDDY
Description: Inhibition of human recombinant GST-6XHis-tagged full-length cytosolic METAP2 expressed in cabbage looper BTI-TN-5B1-4 cells using Met-Pro-p-nitroanilide as substrate after 20 mins by spectrophotometric analysis in presence of Bacillus coagulans GST-tagged proline iminopeptidase

[4] = molecular target: T1, Proline iminopeptidase (Bacillus coagulans) (UniProt P46541); assay: Inhibition of Bacillus coagulans GST-tagged proline iminopeptidase using Pro-p-nitroanilide as substrate at 100 uM relative to control; conditions: Heyndrickxia coagulans
T1 sequence (whole entry): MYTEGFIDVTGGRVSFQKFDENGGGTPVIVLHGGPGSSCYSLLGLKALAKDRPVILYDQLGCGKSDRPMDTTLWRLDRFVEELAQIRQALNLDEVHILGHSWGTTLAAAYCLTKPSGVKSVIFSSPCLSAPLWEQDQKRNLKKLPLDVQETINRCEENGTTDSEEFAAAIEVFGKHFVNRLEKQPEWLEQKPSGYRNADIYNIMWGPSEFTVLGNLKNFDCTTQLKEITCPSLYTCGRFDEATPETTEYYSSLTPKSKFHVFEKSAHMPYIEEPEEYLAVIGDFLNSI

[5] = molecular target: T1, Proline iminopeptidase (Bacillus coagulans); assay: Inhibition of Bacillus coagulans GST-tagged proline iminopeptidase using Pro-p-nitroanilide as substrate at 10 uM relative to control; conditions: Heyndrickxia coagulans

Compound | Ratio EC50 [1] | pIC50 [2] | pIC50 [3] | inhibition [4] [%] | inhibition [5] [%]
Cc1nc(-c2ccc(Cl)cn2)nc(NCC(CCCCCc2ccccc2)c2ccccc2)c1Cl (racemic) | > 87 | 5.64 | < 3.70 |  | 
Cc1nc(-c2ccc(Cl)cn2)nc(NCC(CCc2ccccc2)c2ccccc2)c1Cl (configuration not stated) | > 3180 | 7.20 | < 3.70 |  | 
Cc1nc(-c2ccc(Cl)cn2)nc(NCC(CCCCc2ccccc2)c2ccccc2)c1Cl (configuration not stated) | > 1000 | 6.70 | < 3.70 |  | 
Cc1nc(-c2ccc(Cl)cn2)nc(NC[C@H](NCCCCc2ccco2)c2ccccc2)c1Cl | > 909 | 6.48 | < 3.52 |  | 
Cc1nc(-c2ccc(Cl)cn2)nc(NC[C@H](NCCCCc2ccc(C#N)cc2)c2ccccc2)c1Cl | 31 | 6.28 | 4.80 | 97 | 27
Cc1nc(-c2ccccn2)nc(NCCNc2ccc(C(F)(F)F)cn2)c1Cl |  |  | < 4.00 |  | 
Cc1nc(-c2ccc(Cl)cn2)nc(NC[C@H](NCCCCc2ccc3ccccc3n2)c2ccccc2)c1Cl | > 435 | 6.16 | < 3.52 |  | 
Cc1nc(-c2ccccn2)nc(NC[C@H](NCCCN2CCN(CCO)CC2)c2ccccc2)c1Cl |  |  | 4.00 |  | 
Cc1cc(NCCc2ccccc2)nc(-c2ccccn2)n1 |  | < 4.00 | < 4.00 |  | 
Cc1nc(-c2ccc([N+](=O)[O-])cn2)nc(NC[C@H](NC(=O)CCCN2CCNCC2)c2ccccc2)c1Cl | 47 | 6.52 | 4.85 |  | 
Cc1nc(-c2ccccn2)nc(NC[C@H](NC(=O)CCN2CCN(CCO)CC2)c2ccccc2)c1Cl |  |  | 3.94 |  | 
Cc1nc(-c2ccccn2)nc(NC2CCN(c3ncc(C(F)(F)F)cc3Cl)CC2)c1Cl |  |  | < 4.00 |  | 
Cc1nc(-c2ccc(Cl)cn2)nc(NC[C@H](NCCCCc2ccccc2)c2ccccc2)c1Cl |  |  | < 4.00 |  | 
Cc1nc(-c2cccnc2)nc(NCc2ccccc2)c1Cl |  | < 4.00 | < 4.00 |  | 
Cc1nc(-c2ccccn2)nc(NC[C@H](NCCCCN2CCNCC2)c2ccccc2)c1Cl |  |  | 3.73 |  | 
Cc1nc(-c2ccccn2)nc(SCCc2ccccc2)c1Cl |  |  | < 4.00 |  | 
Cc1nc(-c2ccc(F)cn2)nc(NC[C@H](NC(=O)CCCN2CCNCC2)c2ccccc2)c1Cl | 24 | 7.31 | 5.92 |  | 
Cc1nc(-c2ccc(Cl)cn2)nc(NC[C@H](NCCCCc2cccs2)c2ccccc2)c1Cl | > 789 | 6.42 | < 3.52 |  | 
Cc1nc(-c2ccc(Br)cn2)nc(NC[C@H](NC(=O)CCCN2CCNCC2)c2ccccc2)c1Cl | 161 | 6.48 | 4.28 |  | 
Cc1nc(-c2ccccn2)nc(NC[C@H](NC(=O)CCCN2CCN(CCO)CC2)c2ccccc2)c1Cl |  |  | < 3.52 |  | 
Cc1nc(-c2ccc(Cl)cn2)nc(NC[C@H](NCc2ccccc2)c2ccccc2)c1Cl | 141 | 6.66 | 4.51 |  | 
COc1ccc(-c2nc(C)c(Cl)c(NC[C@H](NC(=O)CCCN3CCNCC3)c3ccccc3)n2)nc1 | > 1110 | 6.57 | < 3.52 |  | 
Cc1nc(-c2ccc(Cl)cn2)nc(NC[C@H](NCCCc2ccccc2)c2ccccc2)c1Cl | > 1150 | 6.59 | < 3.52 |  | 
Cc1nc(-c2ccc(Cl)cn2)nc(NC[C@H](NC(=O)CCCc2ccccc2)c2ccccc2)c1Cl | > 188 | 6.80 | < 4.52 |  | 
COc1cccnc1-c1nc(C)c(Cl)c(NC[C@H](NC(=O)CCCN2CCNCC2)c2ccccc2)n1 | > 120 | 5.60 | < 3.52 |  | 
Cc1nc(-c2ccc(Cl)cn2)nc(NC[C@H](NCCCCc2ccc(Cl)cc2)c2ccccc2)c1Cl | > 526 | 6.24 | < 3.52 |  | 

Compound | Ratio EC50 [1] | pIC50 [2] | pIC50 [3] | inhibition [4] [%] | inhibition [5] [%]
Cc1nc(-c2ccc(Cl)cn2)nc(NC[C@H](NC(=O)CCCCCc2ccccc2)c2ccccc2)c1Cl | > 45 | 6.17 | < 4.52 |  | 
CCCOc1ccc(CCCCN[C@@H](CNc2nc(-c3ccc(Cl)cn3)nc(C)c2Cl)c2ccccc2)cc1 | > 250 | 5.92 | < 3.52 |  | 
Cc1nc(-c2ccccn2)nc(NC[C@H](NCCCN2CCNCC2)c2ccccc2)c1Cl |  |  | 3.97 |  | 
Cc1nc(-c2ccc(Cl)cn2)nc(NC[C@H](NCCCCc2ccc(O)cc2)c2ccccc2)c1Cl | > 714 | 6.38 | < 3.52 |  | 
Cc1nc(-c2ccc(Cl)cn2)nc(NC[C@H](NCCc2ccccc2)c2ccccc2)c1Cl | > 384 | 6.59 | < 4.00 |  | 
Cc1nc(-c2ccc(Cl)cn2)nc(NC[C@H](NC(=O)CCc2ccccc2)c2ccccc2)c1Cl | > 323 | 7.03 | < 4.52 |  | 
Cc1nc(-c2cc(Cl)ccn2)nc(NC[C@H](NC(=O)CCCN2CCNCC2)c2ccccc2)c1Cl | > 411 | 6.14 | < 3.52 |  | 
Cc1nc(-c2ccccn2)nc(NC[C@H](NC(=O)CCCN2CCNCC2)c2ccccc2)c1Cl |  |  | < 3.52 |  | 
Cc1nc(-c2cccc(Cl)n2)nc(NC[C@H](NC(=O)CCCN2CCNCC2)c2ccccc2)c1Cl | > 4.2 | 5.14 | < 4.52 |  | 
Cc1nc(-c2ccc(Cl)cn2)nc(NCC(CCCc2ccccc2)c2ccccc2)c1Cl (configuration not stated) | > 1250 | 6.80 | < 3.70 |  | 
Cc1nc(-c2ccccn2)nc(NCCNc2cccc(C(F)(F)F)n2)c1Cl |  |  | < 4.00 |  | 
Cc1nc(-c2ccc(Cl)cn2)nc(NC[C@H](NC(=O)Cc2ccccc2)c2ccccc2)c1Cl | 40 | 6.15 | 4.55 |  | 
Cc1nc(-c2ccc(N3CCCC3)cn2)nc(NC[C@H](NC(=O)CCCN2CCNCC2)c2ccccc2)c1Cl | 1.1 | 5.77 | 5.96 |  | 
Cc1nc(-c2ccccn2)nc(NC[C@H](NCCCCN2CCN(CCO)CC2)c2ccccc2)c1Cl |  |  | 3.71 |  | 
Cc1nc(-c2ccc(Cl)cn2)nc(NC[C@H](NCCCCCc2ccccc2)c2ccccc2)c1Cl | > 138 | 6.11 | < 4.00 |  | 
Cc1nc(-c2ccc(Cl)cn2)nc(NC[C@H](NC(=O)CCCN2CCNCC2)c2ccccc2)c1Cl | 33 | 7.44 | 5.92 |  | 
Cc1nc(-c2ncccc2Cl)nc(NC[C@H](NC(=O)CCCN2CCNCC2)c2ccccc2)c1Cl | > 39 | 5.12 | < 3.52 |  | 
COc1cccc(-c2nc(C)c(Cl)c(NC[C@H](NC(=O)CCCN3CCNCC3)c3ccccc3)n2)n1 | > 1.5 | 4.70 | < 4.52 |  | 
Cc1nc(-c2ccc(Cl)cn2)nc(NC[C@H](NCCCCn2cccc2)c2ccccc2)c1Cl | > 200 | 6.30 | < 4.00 |  | 
Cc1nc(-c2ccc(Cl)cn2)nc(NC[C@H](NCCCCCCc2ccccc2)c2ccccc2)c1Cl | > 42 | 6.15 | < 4.52 |  | 
Cc1nc(-c2ccc(Cl)cn2)nc(NC[C@H](NC(=O)CCCCc2ccccc2)c2ccccc2)c1Cl | > 23 | 5.89 | < 4.52 |  | 
Cc1nc(-c2ccccn2)nc(NCCc2ccccc2)c1C |  | < 4.00 | < 4.00 |  | 
Cc1nc(-c2ccc(N(C)C)cn2)nc(NC[C@H](NC(=O)CCCN2CCNCC2)c2ccccc2)c1Cl | 12 | 6.85 | 5.77 |  | 
Cc1nc(-c2ccccn2)nc(N2CCN(CCO)CC2)c1Cl |  |  | < 4.00 |  | 
Cc1nc(-c2ccccn2)nc(SCc2ccccc2)c1Cl |  |  | < 4.00 |  | 
COc1ccnc(-c2nc(C)c(Cl)c(NC[C@H](NC(=O)CCCN3CCNCC3)c3ccccc3)n2)c1 | 26 | 6.28 | 4.85 |  | 
